ChEMBL document CHEMBL2010796, “Systematic structure modifications of imidazo[1,2-a]pyrimidine to reduce metabolism mediated by aldehyde oxidase (AO)” (J Med Chem, 2011)
The source made the active and inactive calls. The rule behind the calls is not given here.

Tests used:
[1] = target: T1, Androgen receptor (Homo sapiens) (UniProt P10275); assay: Antagonist activity at human androgen receptor expressed in LNAR cells assessed as inhibition of […]-induced luciferase activity by reporter gene assay; type: functional, cell-based
T1 sequence (whole entry): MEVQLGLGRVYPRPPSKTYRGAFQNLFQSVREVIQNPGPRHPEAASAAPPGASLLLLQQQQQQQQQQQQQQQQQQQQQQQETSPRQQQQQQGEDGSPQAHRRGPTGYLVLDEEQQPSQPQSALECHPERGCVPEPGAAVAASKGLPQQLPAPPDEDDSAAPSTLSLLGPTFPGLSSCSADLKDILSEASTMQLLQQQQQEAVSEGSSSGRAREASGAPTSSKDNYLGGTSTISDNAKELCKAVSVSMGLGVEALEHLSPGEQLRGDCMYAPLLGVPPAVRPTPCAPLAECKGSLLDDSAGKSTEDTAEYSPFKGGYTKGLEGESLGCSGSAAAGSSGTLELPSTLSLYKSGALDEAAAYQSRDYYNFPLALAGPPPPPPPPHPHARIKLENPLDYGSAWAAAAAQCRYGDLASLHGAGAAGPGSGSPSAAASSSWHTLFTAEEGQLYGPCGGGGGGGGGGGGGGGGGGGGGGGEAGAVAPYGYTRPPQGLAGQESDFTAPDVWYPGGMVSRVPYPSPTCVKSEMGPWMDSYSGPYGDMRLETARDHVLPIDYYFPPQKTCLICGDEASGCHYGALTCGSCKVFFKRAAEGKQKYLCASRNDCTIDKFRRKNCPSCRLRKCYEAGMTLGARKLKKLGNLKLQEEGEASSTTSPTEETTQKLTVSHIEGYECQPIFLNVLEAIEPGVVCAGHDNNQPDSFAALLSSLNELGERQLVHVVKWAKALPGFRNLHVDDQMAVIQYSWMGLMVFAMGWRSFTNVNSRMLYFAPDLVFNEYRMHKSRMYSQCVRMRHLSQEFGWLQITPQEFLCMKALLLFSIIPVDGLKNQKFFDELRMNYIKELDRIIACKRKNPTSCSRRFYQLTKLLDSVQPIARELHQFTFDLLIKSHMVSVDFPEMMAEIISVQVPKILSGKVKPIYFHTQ

[2] = Kinetic solubility in water; type: physicochemical; conditions: read-out: Kinetic_solubility
[3] = Drug metabolism in human liver microsomes assessed as CYP450-mediated oxidation; type: ADME, Microsome
[4] = Half life in rat; type: ADME, organism-based; conditions: in vivo
[5] = Oral bioavailability in rat; type: ADME, organism-based; conditions: in vivo
[6] = Plasma clearance in rat; type: ADME, organism-based

COc1nc(O[C@H]2C(C)(C)[C@H](NC(=O)c3cnc4ncccn34)C2(C)C)ccc1C#N
inhibition [1]: Active

Cc1nc(O[C@H]2C(C)(C)[C@H](NC(=O)c3cnc4ccccn34)C2(C)C)ccc1C#N
solubility kinetic [2]: < 0.4 µM
Drug metabolism [3]: Active

CC1(C)[C@H](NC(=O)c2cnc3ncccn23)C(C)(C)[C@H]1Oc1ccc(C#N)c(Cl)c1
inhibition [1]: Active

Cc1nc(O[C@H]2C(C)(C)[C@H](NC(=O)c3cnc4ncccn34)C2(C)C)ccc1C#N
half-life [4]: 3.6 h
bioavailability [5]: 31%
clearance [6]: 11.6 mL/min/kg

CC1(C)[C@H](NC(=O)c2cnc3ncccn23)C(C)(C)[C@H]1Oc1ccc(C#N)c(C#N)c1
inhibition [1]: Active
